Test results from patent US7786137B2, “Bicyclic derivatives as modulators of ion channels” (Vertex Pharmaceuticals Incorporated, priority 2005, dated 2010).

Molecular target: NaV1.3 (Homo sapiens, UniProt Q9NY46)
Assay: VIPR optical membrane potential assay, NaV1.3 inhibition
Type: cell-based
Set-up: expressed in transfected cells; host or cells: HEK293
Conditions: activity against NaV 1.3 channel
Experimental: Antagonist properties of test compounds were assessed as follows. Cells expressing the NaV of interest were placed into microtiter plates. After an incubation period, the cells were stained with fluorescent dyes sensitive to the transmembrane potential. The test compounds were added to the microtiter plate. The cells were stimulated with either a chemical or electrical means to evoke a NaV dependent membrane potential change from unblocked channels, which was detected and measured with trans-membrane potential-sensitive dyes. Antagonists were detected as a decreased membrane potential response to the stimulus.
The following is an example of how NaV1.3 inhibition activity is measured using the optical membrane potential method#2. Other subtypes are performed in an analogous mode in a cell line expressing the NaV of interest.
HEK293 cells stably expressing NaV1.3 are plated into 96-well microtiter plates. After an appropriate incubation period, the cells are stained with the voltage sensitive dyes CC2-DMPE/DiSBAC2(3) as follows.
2× CC2-DMPE=20 μM CC2-DMPE: 10 mM CC2-DMPE is vortexed with an equivalent volume of 10% pluronic, followed by vortexing in required amount of HBSS containing 10 mM HEPES. Each cell plate will require 5 mL of 2× CC2-DMPE. 50 μL of 2× CC2-DMPE is to wells containing washed cells, resulting in a 10 μM final staining concentration. The cells are stained for 30 minutes in the dark at RT.
2× DISBAC2(3) with ABSC1=6 μM DISBAC2(3) and 1 mM ABSC1: The required amount of 10 mM DISBAC2(3) is added to a 50 ml conical tube and mixed with 1 μL 10% pluronic for each mL of solution to be made and vortexed together. Then HBSS/HEPES is added to make up 2× solution. Finally, the ABSC1 is added.
The 2× DiSBAC2(3) solution can be used to solvate compound plates. Note that compound plates are made at 2× drug concentration. Wash stained plate again, leaving residual volume of 50 μL. Add 50 μL/well of the 2× DiSBAC2(3) w/ABSC1. Stain for 30 minutes in the dark at RT.
The instrument comprises a microtiter plate handler, an optical system for exciting the coumarin dye while simultaneously recording the coumarin and oxonol emissions, a waveform generator, a current- or voltage-controlled amplifier, and a device for inserting electrodes in well. Under integrated computer control, this instrument passes user-programmed electrical stimulus protocols to cells within the wells of the microfilter plate.
Insert or use electrodes into each well to be assayed.
Use the current-controlled amplifier to deliver stimulation wave pulses for 3 s. Two seconds of pre-stimulus recording are performed to obtain the un-stimulated intensities. Five seconds of post-stimulation recording are performed to examine the relaxation to the resting state.
Data are analyzed and reported as normalized ratios of background-subtracted emission intensities measured in the 460 nm and 580 nm channels. Background intensities are then subtracted from each assay channel. Background intensities are obtained by measuring the emission intensities during the same time periods from identically treated assay wells in which there are no cells. The response as a function of time is then reported as the ratios obtained using the following formula: […]
The data is further reduced by calculating the initial (Ri) and final (Rf) ratios. These are the average ratio values during part or all of the pre-stimulation period, and during sample points during the stimulation period. The response to the stimulus ? =Rf/Ri is then calculated.
Control responses are obtained by performing assays in the presence of a compound with the desired properties (positive control), such as tetracaine, and in the absence of pharmacological agents (negative control). Responses to the negative (N) and positive (P) controls are calculated as above. The compound antagonist activity A is defined as:
[formula] where R is the ratio response of the test compound.

Sequence of NaV1.3 (Q9NY46 whole entry): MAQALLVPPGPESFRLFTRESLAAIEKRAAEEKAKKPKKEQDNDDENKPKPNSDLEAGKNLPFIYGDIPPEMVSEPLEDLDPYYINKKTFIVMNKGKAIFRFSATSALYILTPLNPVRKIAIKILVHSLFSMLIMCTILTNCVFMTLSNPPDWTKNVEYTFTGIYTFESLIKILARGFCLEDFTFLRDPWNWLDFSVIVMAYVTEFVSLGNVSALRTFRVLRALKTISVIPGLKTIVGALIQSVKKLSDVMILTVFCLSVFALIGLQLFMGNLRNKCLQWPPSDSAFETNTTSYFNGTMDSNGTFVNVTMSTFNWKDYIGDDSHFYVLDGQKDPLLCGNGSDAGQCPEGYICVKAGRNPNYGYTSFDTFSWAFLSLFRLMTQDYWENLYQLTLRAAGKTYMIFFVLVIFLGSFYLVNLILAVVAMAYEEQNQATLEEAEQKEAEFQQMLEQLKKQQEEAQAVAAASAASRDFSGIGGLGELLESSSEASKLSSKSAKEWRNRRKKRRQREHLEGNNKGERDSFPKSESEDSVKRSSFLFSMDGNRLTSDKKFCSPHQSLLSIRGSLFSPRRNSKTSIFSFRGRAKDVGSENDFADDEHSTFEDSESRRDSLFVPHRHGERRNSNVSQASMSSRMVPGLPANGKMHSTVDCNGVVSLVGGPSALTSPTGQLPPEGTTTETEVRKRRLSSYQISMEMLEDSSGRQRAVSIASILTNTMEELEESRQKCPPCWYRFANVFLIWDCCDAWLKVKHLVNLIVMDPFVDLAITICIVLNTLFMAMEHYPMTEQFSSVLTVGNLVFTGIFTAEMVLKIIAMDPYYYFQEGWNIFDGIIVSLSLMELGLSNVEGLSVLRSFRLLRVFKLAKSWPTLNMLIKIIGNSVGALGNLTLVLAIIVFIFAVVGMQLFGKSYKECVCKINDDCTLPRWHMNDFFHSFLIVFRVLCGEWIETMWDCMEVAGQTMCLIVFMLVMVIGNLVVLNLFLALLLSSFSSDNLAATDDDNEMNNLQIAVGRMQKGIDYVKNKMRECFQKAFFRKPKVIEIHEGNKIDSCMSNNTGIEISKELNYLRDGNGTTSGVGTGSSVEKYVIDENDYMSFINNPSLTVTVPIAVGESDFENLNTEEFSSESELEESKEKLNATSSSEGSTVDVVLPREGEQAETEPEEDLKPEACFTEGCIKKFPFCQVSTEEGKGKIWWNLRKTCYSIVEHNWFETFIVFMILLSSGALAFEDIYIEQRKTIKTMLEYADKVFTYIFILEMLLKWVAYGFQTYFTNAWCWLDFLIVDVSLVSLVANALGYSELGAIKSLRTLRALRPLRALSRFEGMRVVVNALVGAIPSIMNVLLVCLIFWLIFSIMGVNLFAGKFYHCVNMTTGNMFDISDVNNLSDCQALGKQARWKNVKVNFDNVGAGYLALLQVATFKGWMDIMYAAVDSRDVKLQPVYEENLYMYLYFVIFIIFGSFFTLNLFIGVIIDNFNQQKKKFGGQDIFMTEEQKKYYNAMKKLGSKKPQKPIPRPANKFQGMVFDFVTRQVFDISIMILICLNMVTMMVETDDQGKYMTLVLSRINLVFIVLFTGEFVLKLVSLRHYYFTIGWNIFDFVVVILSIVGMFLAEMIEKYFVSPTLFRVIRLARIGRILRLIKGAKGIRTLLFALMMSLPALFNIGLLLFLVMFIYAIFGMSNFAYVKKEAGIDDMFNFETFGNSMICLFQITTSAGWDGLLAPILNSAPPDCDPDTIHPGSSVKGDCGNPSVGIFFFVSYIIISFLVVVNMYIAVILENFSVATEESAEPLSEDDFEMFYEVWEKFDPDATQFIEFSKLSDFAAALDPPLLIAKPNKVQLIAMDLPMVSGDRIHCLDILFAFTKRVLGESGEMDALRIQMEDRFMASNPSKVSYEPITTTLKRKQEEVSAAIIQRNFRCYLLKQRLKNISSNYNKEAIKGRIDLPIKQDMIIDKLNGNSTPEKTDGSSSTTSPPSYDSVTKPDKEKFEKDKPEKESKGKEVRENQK

IC50	Compound
< 2 µM	CC(Oc1cccc(Cl)c1)C(=O)N1CCc2cc(S(=O)(=O)Nc3nccs3)ccc21 (stereo not shown) [Compound 91]
< 2 µM	O=C(CCc1ccccc1)N1CCc2cc(S(=O)(=O)Nc3nccs3)ccc21 [Compound 197]
< 2 µM	Cc1cccc(C)c1OCC(=O)N1CCc2cc(S(=O)(=O)Nc3nccs3)ccc21 [Compound 138]
< 2 µM	O=C(c1cccc(Cl)c1)N1CCc2cc(S(=O)(=O)Nc3nccs3)ccc21 [Compound 50]
< 2 µM	O=C(Cc1c(Cl)cccc1Cl)N1CCc2cc(S(=O)(=O)Nc3nccs3)ccc21 [Compound 136]
< 2 µM	O=C(COc1cccc(Cl)c1)N1Cc2ccc(S(=O)(=O)Nc3nccs3)cc2C1 [Compound 11]
> 5 µM	CN(CC(=O)N1CCc2cc(S(=O)(=O)Nc3nccs3)ccc21)c1ccncc1 [Compound 29]
> 5 µM	Cc1ccc(F)c(C(=O)N2CCc3cc(S(=O)(=O)Nc4nccs4)ccc32)c1 [Compound 4]
2 to 5 µM	COc1ccc(F)cc1C(=O)N1CCc2cc(S(=O)(=O)Nc3nccs3)ccc21 [Compound 83]
< 2 µM	O=C(COc1cccc(Cl)c1)N1CCCc2cc(S(=O)(=O)Nc3nccs3)ccc21 [Compound 111]
2 to 5 µM	O=C(COc1cccc(Cl)c1)N1CCCc2cc(S(=O)(=O)Nc3ncns3)ccc21 [Compound 53]
< 2 µM	COc1ccc(CC(=O)N2CCc3cc(S(=O)(=O)Nc4nccs4)ccc32)cc1 [Compound 5]
< 2 µM	O=C(c1ccc(Cl)cc1Cl)N1CCc2cc(S(=O)(=O)Nc3nccs3)ccc21 [Compound 116]
> 5 µM	COc1cc(NCC(=O)N2CCc3cc(S(=O)(=O)Nc4nccs4)ccc32)cc(OC)c1 [Compound 108]
< 2 µM	O=C(c1cc(Cl)ccc1Cl)N1CCc2cc(S(=O)(=O)Nc3nccs3)ccc21 [Compound 109]
< 2 µM	O=C(COc1ccc(F)c(Cl)c1)N1CCc2cc(S(=O)(=O)Nc3ncns3)ccc21 [Compound 13]
< 2 µM	O=C(COc1ccnc2c(C(F)(F)F)cccc12)N1CCc2cc(S(=O)(=O)Nc3nccs3)ccc21 [Compound 194]
< 2 µM	O=C(COc1ccccc1Cl)N1CCc2cc(S(=O)(=O)Nc3nccs3)ccc21 [Compound 2]
2 to 5 µM	Cc1ccc(C(=O)N2CCc3cc(S(=O)(=O)Nc4nccs4)ccc32)cc1 [Compound 7]
< 2 µM	O=C(Cc1ccccc1)N1CCc2cc(S(=O)(=O)Nc3nccs3)ccc21 [Compound 188]
2 to 5 µM	O=C(CNc1ccc(C(F)(F)F)cc1)N1CCc2cc(S(=O)(=O)Nc3nccs3)ccc21 [Compound 68]
< 2 µM	O=C(c1ccc(C(F)(F)F)cc1)N1CCc2cc(S(=O)(=O)Nc3nccs3)ccc21 [Compound 166]
< 2 µM	O=C(Cc1ccc(C(F)(F)F)cc1)N1CCc2cc(S(=O)(=O)Nc3nccs3)ccc21 [Compound 63]
> 5 µM	O=C(CNCc1ccccc1)N1CCc2cc(S(=O)(=O)Nc3nccs3)ccc21 [Compound 24]
< 2 µM	O=C(CCn1ccc2cc(Cl)ccc21)N1CCc2cc(S(=O)(=O)Nc3nccs3)ccc21 [Compound 209]
< 2 µM	COc1cccc(CCC(=O)N2CCc3cc(S(=O)(=O)Nc4nccs4)ccc32)c1 [Compound 192]
> 5 µM	O=C(CNCc1ccncc1)N1CCc2cc(S(=O)(=O)Nc3nccs3)ccc21 [Compound 171]
< 2 µM	Cc1ccc(C(=O)N2CCc3cc(S(=O)(=O)Nc4nccs4)ccc32)cc1 [Compound 47]
< 2 µM	Cc1ccc(C(=O)N2CCc3cc(S(=O)(=O)Nc4nccs4)ccc32)cc1Cl [Compound 82]

Further lines, the molecule ahead of its results:

Compound	IC50
CC(C)(C)c1ccc(OCC(=O)N2CCc3ccc(S(=O)(=O)Nc4nccs4)cc3C2)cc1 [Compound 150]	> 5 µM
Cc1ccc(OCC(=O)N2CCc3cc(S(=O)(=O)Nc4ncns4)ccc32)cc1C [Compound 97]	< 2 µM
COc1ccc(CC(=O)N2CCc3ccc(S(=O)(=O)Nc4nccs4)cc3C2)cc1 [Compound 168]	> 5 µM
O=C(CN1CCCc2cc(Cl)ccc21)N1Cc2ccc(S(=O)(=O)Nc3ccncn3)cc2C1 [Compound 37]	2 to 5 µM
O=C(ON1Cc2ccc(S(=O)(=O)Nc3nccs3)cc2C1)c1ccc(Cl)cc1 [Compound 102]	< 2 µM
O=C(CN1CCC(F)(F)CC1)N1CCc2cc(S(=O)(=O)Nc3nccs3)ccc21 [Compound 153]	> 5 µM
CCc1nnc(NS(=O)(=O)c2ccc3c(c2)CN(C(=O)[C@@H](C)N2CCCc4cc(Cl)ccc42)C3)s1 [Compound 135]	2 to 5 µM
Cc1ccccc1CNCCN1CCc2cc(S(=O)(=O)Nc3nccs3)ccc21 [Compound 99]	> 5 µM
CCc1nnc(NS(=O)(=O)c2ccc3c(c2)CN(C(=O)[C@@H](C)n2ccc4c(F)cccc42)C3)s1 [Compound 105]	2 to 5 µM
COc1ccc(CC(=O)N2Cc3ccc(S(=O)(=O)Nc4nccs4)cc3C2)cc1 [Compound 193]	2 to 5 µM
CC(Oc1ccccc1)C(=O)N1CCc2cc(S(=O)(=O)Nc3ncns3)ccc21 (stereo not shown) [Compound 125]	< 2 µM
O=C(c1cc(Cl)ccc1Cl)n1ccc2cc(S(=O)(=O)Nc3nccs3)ccc21 [Compound 162]	2 to 5 µM
C[C@@H](C(=O)N1CCc2cc(S(=O)(=O)Nc3ncns3)ccc21)n1ccc2c(F)cccc21 [Compound 142]	< 2 µM
O=C(ON1Cc2ccc(S(=O)(=O)Nc3nccs3)cc2C1)c1cccc(C(F)(F)F)c1 [Compound 59]	< 2 µM
O=C(COc1ccc(Cl)cc1Cl)n1ccc2cc(S(=O)(=O)Nc3nccs3)ccc21 [Compound 183]	2 to 5 µM
O=C(c1ccc(Cl)c(Cl)c1)N1CCc2cc(S(=O)(=O)Nc3ncns3)ccc21 [Compound 89]	< 2 µM

Compound	IC50
Cc1nnc(NS(=O)(=O)c2ccc3c(c2)CN(C(=O)COc2ccnc4c(C(F)(F)F)cccc24)CC3)s1 [Compound 152]	> 5 µM
COc1ccc(CCC(=O)n2ccc3cc(S(=O)(=O)Nc4nccs4)ccc32)cc1 [Compound 187]	< 2 µM
O=C(CNC1CCCCC1)N1CCc2cc(S(=O)(=O)Nc3nccs3)ccc21 [Compound 104]	> 5 µM
O=C(c1c(F)cc(F)cc1F)N1CCCc2cc(S(=O)(=O)Nc3nccs3)ccc21 [Compound 76]	> 5 µM
O=C(CCCOc1ccc(Cl)cc1Cl)N1CCc2cc(S(=O)(=O)Nc3ncccn3)ccc21 [Compound 156]	> 5 µM
O=C(COc1ccc(F)cc1)N1Cc2ccc(S(=O)(=O)Nc3nccs3)cc2C1 [Compound 115]	< 2 µM
O=C(COc1ccc(OC(F)(F)F)cc1)N1Cc2ccc(S(=O)(=O)Nc3nccs3)cc2C1 [Compound 84]	< 2 µM
C[C@@H](C(=O)N1CCc2cc(S(=O)(=O)Nc3ncns3)ccc21)n1ccc2ccccc21 [Compound 130]	> 5 µM
C[C@H](C(=O)N1CCc2cc(S(=O)(=O)Nc3ncns3)ccc21)n1ccc2c(F)cccc21 [Compound 93]	< 2 µM
Cc1ccc(C(=O)n2ccc3cc(S(=O)(=O)Nc4nccs4)ccc32)cc1F [Compound 128]	< 2 µM
O=C(c1ccc(F)cc1F)N1CCc2ccc(S(=O)(=O)Nc3nccs3)cc2C1 [Compound 73]	> 5 µM
O=C(c1ccccc1Cl)n1ccc2cc(S(=O)(=O)Nc3nccs3)ccc21 [Compound 103]	2 to 5 µM
O=C(c1ccc(F)cc1F)N1CCc2cc(S(=O)(=O)Nc3ncns3)ccc21 [Compound 118]	> 5 µM
CC(C)(Oc1ccc(Cl)cc1)C(=O)n1ccc2cc(S(=O)(=O)Nc3nccs3)ccc21 [Compound 173]	2 to 5 µM
Cc1ccc(OCC(=O)N2Cc3ccc(S(=O)(=O)Nc4nccs4)cc3C2)cc1C [Compound 190]	< 2 µM
O=S(=O)(Nc1nccs1)c1ccc2c(c1)CCN2CCNc1cnc2ccccc2c1 [Compound 22]	> 5 µM
